# Assay results taken from patent publication US20040063663A1, “Acylated cyclodextrin: guest molecule inclusion complexes” (priority 2000, published 2004).
# Test: Thermal stability of triacetyl-β-CD (TGA)
# Type: physicochemical
# Description: In order to determine the stability of triacetyl-β-CD, a sample was heated to 400° C. at 20° C./min under nitrogen in a DuPont 2200 thermogravimetric spectrometer (FIG. 7). […] A sample of triacetyl-β-CD was then held at 300° C. for 35 minutes (FIG. 8). Even after extended heating at this temperature, only about 3.2% weight loss was observed.
compound,measurement,setting,value
"CC(=O)OC[C@H]1O[C@@H]2O[C@H]3[C@H](OC(C)=O)[C@@H](OC(C)=O)[C@@H](O[C@H]4[C@H](OC(C)=O)[C@@H](OC(C)=O)[C@@H](O[C@H]5[C@H](OC(C)=O)[C@@H](OC(C)=O)[C@@H](O[C@H]6[C@H](OC(C)=O)[C@@H](OC(C)=O)[C@@H](O[C@H]7[C@H](OC(C)=O)[C@@H](OC(C)=O)[C@@H](O[C@H]8[C@H](OC(C)=O)[C@@H](OC(C)=O)[C@@H](O[C@H]1[C@H](OC(C)=O)[C@H]2OC(C)=O)O[C@@H]8COC(C)=O)O[C@@H]7COC(C)=O)O[C@@H]6COC(C)=O)O[C@@H]5COC(C)=O)O[C@@H]4COC(C)=O)O[C@@H]3COC(C)=O [triacetyl-β-CD, heptakis(2,3,6-tri-O-acetyl)-β-cyclodextrin]",Temperature until which 10% weight loss is not observed,"TGA, FIG. 7",372 °C
same,Weight loss observed until above 325° C.,heated to 400° C. at 20° C./min under nitrogen,ca. 0.2%
same,Weight loss,held at 300° C. for 35 minutes,about 3.2%
